Source: patent publication US11267795B2, “Crystalline PPAR-delta agonist” (Reneo Pharmaceuticals, Inc., priority 2020, dated 2022)
Marks after values point to notes of the source that are not given here.

Key:
[1] = Gravimetric Vapor Sorption (GVS) with XRPD re-analysis; format: physicochemical; conditions: for Reversible Water Uptake between 0-90% RH: GVS, 25° C.; for Solid State Form After GVS (XRPD): after isotherm experiment at 90% RH and 25° C.
Experimental: Sorption isotherms were obtained using a SMS DVS Intrinsic moisture sorption analyzer, controlled by DVS Intrinsic Control software. The sample temperature was maintained at 25° C. by the instrument controls. The humidity was controlled by mixing streams of dry and wet nitrogen, with a total flow rate of 200 ml/min. The relative humidity was measured by a calibrated Rotronic probe (dynamic range of 1.0-100% RH), located near the sample. The weight change, (mass relaxation) of the sample as a function of % RH was constantly monitored by a microbalance (accuracy ±0.005 mg).
Typically, 5-30 mg of sample was placed in a tared mesh stainless steel basket under ambient conditions. The sample was loaded and unloaded at 40% RH and 25° C. (typical room conditions). A moisture sorption isotherm was performed as outlined below (2 scans per complete cycle). The standard isotherm was performed at 25° C. at 10% RH intervals over a 0-90% RH range. Typically, a double cycle (4 scans) was carried out. Data analysis was carried out within Microsoft Excel using the DVS Analysis Suite.
The method for SMS DVS Intrinsic experiments is outlined in the following table:
Reversible water uptake for the crystalline forms and patterns as determined by Gravimetric Vapor Sorption (GVS) are as described in the following table:
The samples were recovered after completion of the isotherm experiment at […] and 25° C. and re-analyzed by XRPD.

[2] = Stability of solid state forms under static storage, re-analysed by XRPD; format: physicochemical
Experimental: Crystalline Form 1 of Compound II (4 g) was placed in a crystallization dish and stored in a stability chamber at 25° C./97% RH. XRPD analysis was regularly performed to verify the conversion to Form 2. Complete conversion was observed after 4 weeks at 25° C./97% RH.
Samples were assessed for stability under ambient or static storage conditions of 25° C./97% RH and 40° C./75% RH for 7 or 10 days. The samples were then re-analyzed by XRPD.
Results of the subsequent XRPD analysis for the crystalline forms are described in the following table: […]

[3] = Stability of solid forms on drying, vacuum or standing (XRPD); format: physicochemical
Experimental: Crystalline Hydrate Form 2 of Compound II was portioned into two and half was placed in the vacuum oven at RT. After 24 h the sample was analyzed by XRPD. Some small differences between the XRPD pattern and the Form 2 reference were noted. After 4 days in the vacuum oven complete conversion was observed.

[4] = Variable temperature XRPD (heating); format: physicochemical; conditions: heating to 110° C.
Experimental: For variable temperature (VT-XRPD) experiments the samples were prepared and analyzed in an Anton Paar chromed sample holder. A heating/cooling rate of 10° C./min was used with a 2 min isothermal hold before the measurement started. The measurement parameters are as per the standard screening data collection method (detailed above). Measurements were taken at the following temperatures: […]

[5] = system: mice; conditions: cited from earlier work

Reversible Water Uptake between 0-90% RH [1] | Solid State Form After GVS (XRPD) [1] | solid state form by XRPD after storage ([2]; 25° C./97% RH/7 days) | solid state form by XRPD after storage ([2]; 40° C./75% RH/7 days) | solid form stability on drying [3] | Compound | other results
~13.0% † | Unchanged (Form 1) | Form 2 | Unchanged (Form 1) |  | Cc1cc(OC/C=C(/c2ccc(F)cc2)c2ccc(C#CCN3CCOCC3)cc2)ccc1OCC(=O)[O-].[Na+] [Form 1, sodium (E)-2-(4-((3-(4-fluorophenyl)-3-(4-(3-morpholinoprop-1-yn-1-yl)phenyl)allyl)oxy)-2-methylphenoxy)acetate] | time to complete conversion to Form 2 ([2]; stability chamber at 25° C./97% RH, 4 g): 4 weeks
~25% | Unchanged (Form 2) | Unchanged (Form 2) | Unchanged (Form 2) |  | Cc1cc(OC/C=C(/c2ccc(F)cc2)c2ccc(C#CCN3CCOCC3)cc2)ccc1OCC(=O)[O-].[Na+] [Form 2, sodium (E)-2-(4-((3-(4-fluorophenyl)-3-(4-(3-morpholinoprop-1-yn-1-yl)phenyl)allyl)oxy)-2-methylphenoxy)acetate] | time to complete conversion to Pattern 9 ([3]; vacuum oven at RT): 4 days
~23% | Form 2 | Form 2 | Form 1 |  | Cc1cc(OC/C=C(/c2ccc(F)cc2)c2ccc(C#CCN3CCOCC3)cc2)ccc1OCC(=O)[O-].[Na+] [Form 4, sodium (E)-2-(4-((3-(4-fluorophenyl)-3-(4-(3-morpholinoprop-1-yn-1-yl)phenyl)allyl)oxy)-2-methylphenoxy)acetate] | XRPD after heating [4]: unchanged XRPD
~11% | Form 1 |  |  | converts to Form 1 | Cc1cc(OC/C=C(/c2ccc(F)cc2)c2ccc(C#CCN3CCOCC3)cc2)ccc1OCC(=O)[O-].[Na+] [Form 5, sodium (E)-2-(4-((3-(4-fluorophenyl)-3-(4-(3-morpholinoprop-1-yn-1-yl)phenyl)allyl)oxy)-2-methylphenoxy)acetate] | 

Continued, compound first:

Compound | Reversible Water Uptake between 0-90% RH [1] | Solid State Form After GVS (XRPD) [1] | solid state form by XRPD after storage ([2]; 25° C./97% RH/7 days) | solid state form by XRPD after storage ([2]; 40° C./75% RH/7 days) | solid form stability on drying [3] | other results
Cc1cc(OC/C=C(/c2ccc(F)cc2)c2ccc(C#CCN3CCOCC3)cc2)ccc1OCC(=O)[O-].[Na+] [Form 3, sodium (E)-2-(4-((3-(4-fluorophenyl)-3-(4-(3-morpholinoprop-1-yn-1-yl)phenyl)allyl)oxy)-2-methylphenoxy)acetate] | ~9.0% | Form 1 |  | Form 1 | converts to Form 1 | solid form stability on standing ([3]; standing in ambient conditions): converts to Form 1
Cc1cc(SCc2sc(-c3ccc(C(F)(F)F)cc3)nc2C)ccc1OCC(=O)O [GW1516] |  |  |  |  |  | energy substrate usage ([5]; 8 weeks treatment): a clear shift in energy substrate usage from glucose to fatty acid oxidation; physical performance ([5]; in combination with exercise, 4 weeks): enhanced physical performance
Cc1cc(OC/C=C(/c2ccc(F)cc2)c2ccc(C#CCN3CCOCC3)cc2)ccc1OCC(=O)[O-].[Na+] [Pattern 5, sodium (E)-2-(4-((3-(4-fluorophenyl)-3-(4-(3-morpholinoprop-1-yn-1-yl)phenyl)allyl)oxy)-2-methylphenoxy)acetate] |  |  |  |  |  | solid form stability [3]: unstable
Cc1cc(OC/C=C(/c2ccc(F)cc2)c2ccc(C#CCN3CCOCC3)cc2)ccc1OCC(=O)[O-].[Na+] [Pattern 8, sodium (E)-2-(4-((3-(4-fluorophenyl)-3-(4-(3-morpholinoprop-1-yn-1-yl)phenyl)allyl)oxy)-2-methylphenoxy)acetate] |  |  |  |  | converts to Form 1 | 
Cc1cc(OC/C=C(/c2ccc(F)cc2)c2ccc(C#CCN3CCOCC3)cc2)ccc1OCC(=O)[O-].[Na+] [Pattern 9, sodium (E)-2-(4-((3-(4-fluorophenyl)-3-(4-(3-morpholinoprop-1-yn-1-yl)phenyl)allyl)oxy)-2-methylphenoxy)acetate] | ~27% | Unchanged (Pattern 9) |  |  |  | 
Cc1cc(OC/C=C(/c2ccc(F)cc2)c2ccc(C#CCN3CCOCC3)cc2)ccc1OCC(=O)[O-].[Na+] [amorphous, sodium (E)-2-(4-((3-(4-fluorophenyl)-3-(4-(3-morpholinoprop-1-yn-1-yl)phenyl)allyl)oxy)-2-methylphenoxy)acetate] |  |  |  |  |  | change in XRPD after storage ([2]; ambient storage conditions for 24 hours, 48 hours, 7 days, or 10 days): no change; change in XRPD after storage ([2]; static storage of 40° C./75% RH for 10 days): no change
